Laboratory results published in PubChem BioAssay (NCI).
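The compound was tested at five concentrations on cells cultured in 96-well plates, with a 48-hour exposure period. At the GI50, growth is halved. TGI is the concentration that stops growth completely.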

Tests used:
Experiment in all cases: inhibition of tumour cell growth, NCI panel, 48 h
SK-MEL-5 melanoma = test system: SK-MEL-5 melanoma
NCI-H23 lung = test system: NCI-H23 lung
NCI/ADR-RES ovarian = test system: NCI/ADR-RES ovarian
SW-620 colon = test system: SW-620 colon
IGROV1 ovarian = test system: IGROV1 ovarian
MCF7 breast = test system: MCF7 breast
SNB-75 CNS = test system: SNB-75 CNS
HCC-2998 colon = test system: HCC-2998 colon
HL-60(TB) leukemia = test system: HL-60(TB) leukemia
SNB-19 CNS = test system: SNB-19 CNS

Structure (SMILES) | GI50 (SK-MEL-5 melanoma) | TGI (SK-MEL-5 melanoma) | GI50 (NCI-H23 lung) | TGI (NCI-H23 lung) | GI50 (NCI/ADR-RES ovarian) | TGI (NCI/ADR-RES ovarian) | GI50 (SW-620 colon) | TGI (SW-620 colon) | GI50 (IGROV1 ovarian) | TGI (IGROV1 ovarian) | GI50 (MCF7 breast) | TGI (MCF7 breast) | GI50 (SNB-75 CNS) | TGI (SNB-75 CNS) | GI50 (HCC-2998 colon) | TGI (HCC-2998 colon) | GI50 (HL-60(TB) leukemia) | TGI (HL-60(TB) leukemia) | GI50 (SNB-19 CNS) | TGI (SNB-19 CNS)
CCn1c(-c2nonc2N)nc2c(C#CCN)ncc(OCCCN)c21 | > 25 µM | > 25 µM | > 25 µM | > 25 µM | > 25 µM | > 25 µM | > 25 µM | > 25 µM | > 25 µM | > 25 µM | > 25 µM | > 25 µM | > 24.2 µM | > 25 µM | > 25 µM | > 25 µM | > 25 µM | > 25 µM | > 25 µM | > 25 µM
COc1cc(-n2cc(-c3ccc(Cl)c(Cl)c3)nc2SCc2ccccc2)cc(OC)c1OC | > 100 µM | > 100 µM | > 100 µM | > 100 µM | > 100 µM | > 100 µM | > 100 µM | > 100 µM | > 100 µM | > 100 µM | > 100 µM | > 100 µM | > 100 µM | > 100 µM | > 100 µM | > 100 µM | > 100 µM | > 100 µM | > 100 µM | > 100 µM
